From article PMC8330740, “Discovery of new 3-methylquinoxalines as potential anti-cancer agents and apoptosis inducers targeting VEGFR-2: design, synthesis, and in silico studies” (Journal of Enzyme Inhibition and Medicinal Chemistry, 2021)

Experiments:
[1] = test system: MCF-7 (human breast cancer cell line); test: MTT cytotoxicity assay, MCF-7; type: cell-based; conditions: for IC50: Homo sapiens, MCF7, MTT assay, mean of at least three different experiments; for Cytotoxic activity against the two cell lines (in words): MCF-7 and HepG2 together
Protocol: (§1) In vitro cytotoxicity was carried out using MTT assay protocol[47]^,[65–67] as described in Supplementary data.

[2] = test system: HepG2 (human liver carcinoma cell line); test: MTT cytotoxicity assay, HepG2; type: cell-based; conditions: mean of at least three different experiments
Protocol: as §1

Human VEGFR-2 = Human VEGFR-2 (Homo sapiens, UniProt P35968); test: In vitro VEGFR-2 kinase assay (Human VEGFR-2 ELISA kit)
primary rat hepatocytes = test: In vitro cytotoxicity against normal cells; conditions: Hepatocyte, read-out: IC50 primary rat hepatocytes
caspase-3 = test: Western blot, caspase-3 level in HepG2; type: cell-based, human; conditions: HepG2, 2.1 µM, 24 h; compared to control cells
Protocol: (§2) To investigate the effect of the synthesised compounds on caspase-3 and caspase-9 levels, the most promising member 11e was applied on the most sensitive cells (HepG2) at a concentration of 2.1 µM for 24 h.
(§3) Western blot technique was applied to assess the potential effect of compound 11e on the expression of caspase‐9, caspase‐3, BAX, and Bcl‐2 as reported in Supplementary data[77–79].

BAX = test: Western blot, BAX level in HepG2; type: cell-based, human; conditions: HepG2, 24 h
Protocol: (§4) Compound 11e as a promising member was investigated to evaluate its effect on BAX and Bcl-2 after 24 h of its application on HepG2 cells using Western blot technique.
as §3

Bcl-2 = test: Western blot, Bcl-2 level in HepG2; type: cell-based, human; conditions: HepG2, 24 h
Protocol: as §4, §3

HepG2 cells [3] = test: Apoptosis analysis (Annexin-V/propidium iodide staining); type: cell-based, human; conditions: HepG2, 2.1 µM, 24 h
Protocol: To quantify the apoptosis triggered by 11e, Annexin-V/propidium iodide (PI) staining assay was conducted. In such procedure, compound 11e at a concentration of 2.1 µM was applied on HepG2 cells. Then, the media were incubated for 24 h. […] In details, compound 11e induced apoptosis by 49.14% (early apoptosis = 48.87% & late apoptosis = 0.27%), compared to 9.71% in the control cells (early apoptosis = 9.58% & late apoptosis = 0.13%).
The effect of compound 11e on cell apoptosis was investigated as described in Supplementary data[74–76].

caspase-9 = test: Western blot, caspase-9 level in HepG2; type: cell-based, human; conditions: HepG2, 2.1 µM, 24 h; compared to control cells
Protocol: as §2, §3

HepG2 cells [4] = test: Cell cycle analysis (propidium iodide staining, flow cytometry); type: cell-based, human; conditions: HepG2, 2.1 µM, 24 h
Protocol: HepG2 cells were used as a control without treatment by compound 11e.
The effect of compound 11e on cell cycle distribution was performed using propidium iodide (PI) staining technique as described in Supplementary data[71–73].

[5] = mean ± SD of three experiments, listed as Compound 11e

Sequence of Human VEGFR-2 (P35968 20-1356): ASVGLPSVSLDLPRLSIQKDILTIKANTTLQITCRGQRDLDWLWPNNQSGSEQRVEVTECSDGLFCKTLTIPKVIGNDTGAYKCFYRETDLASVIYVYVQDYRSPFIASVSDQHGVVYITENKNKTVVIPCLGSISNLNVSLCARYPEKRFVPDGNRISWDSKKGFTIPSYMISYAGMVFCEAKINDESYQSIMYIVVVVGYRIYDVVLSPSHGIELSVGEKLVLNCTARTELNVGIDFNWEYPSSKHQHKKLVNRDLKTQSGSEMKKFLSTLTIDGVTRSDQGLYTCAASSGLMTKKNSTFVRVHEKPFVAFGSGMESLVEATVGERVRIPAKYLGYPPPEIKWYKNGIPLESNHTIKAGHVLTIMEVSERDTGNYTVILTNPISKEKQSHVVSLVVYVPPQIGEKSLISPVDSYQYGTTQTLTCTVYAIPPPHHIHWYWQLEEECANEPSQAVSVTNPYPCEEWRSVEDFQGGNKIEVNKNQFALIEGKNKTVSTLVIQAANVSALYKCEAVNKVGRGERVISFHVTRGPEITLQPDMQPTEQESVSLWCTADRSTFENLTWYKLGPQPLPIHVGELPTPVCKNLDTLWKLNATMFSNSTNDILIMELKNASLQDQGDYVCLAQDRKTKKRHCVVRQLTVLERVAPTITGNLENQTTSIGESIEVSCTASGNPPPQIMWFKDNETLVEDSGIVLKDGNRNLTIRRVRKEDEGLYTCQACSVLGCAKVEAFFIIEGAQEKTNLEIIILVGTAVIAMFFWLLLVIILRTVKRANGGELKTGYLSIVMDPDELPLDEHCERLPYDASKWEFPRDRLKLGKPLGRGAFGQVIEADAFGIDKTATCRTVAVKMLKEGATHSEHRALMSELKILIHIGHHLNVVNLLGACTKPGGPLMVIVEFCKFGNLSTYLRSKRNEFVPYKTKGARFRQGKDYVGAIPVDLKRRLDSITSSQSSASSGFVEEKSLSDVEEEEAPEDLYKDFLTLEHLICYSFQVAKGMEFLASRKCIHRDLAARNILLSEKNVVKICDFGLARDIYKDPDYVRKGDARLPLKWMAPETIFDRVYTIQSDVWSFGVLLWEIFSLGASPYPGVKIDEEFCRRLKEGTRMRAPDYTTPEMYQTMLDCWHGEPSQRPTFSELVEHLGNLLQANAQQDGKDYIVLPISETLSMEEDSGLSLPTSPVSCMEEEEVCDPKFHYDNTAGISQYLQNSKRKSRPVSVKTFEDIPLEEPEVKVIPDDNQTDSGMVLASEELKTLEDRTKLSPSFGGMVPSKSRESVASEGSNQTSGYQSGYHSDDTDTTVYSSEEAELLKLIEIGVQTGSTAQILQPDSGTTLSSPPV

Compound	IC50 [1]	IC50 [2]	IC50 (Human VEGFR-2)	also measured
CCC(C)NC(=O)c1ccc(NC(=O)CSc2nc3ccccc3nc2C)cc1 (stereo not drawn) [Compound 12b, N-(sec-Butyl)-4–(2-((3-methylquinoxalin-2-yl)thio)acetamido)benzamide]	35.7 µM	21.7 µM	0.0157 µM	Cytotoxic activity against the two cell lines (in words) [1]: weak cytotoxic activity
CNC(=O)c1cc(Oc2ccc(NC(=O)Nc3ccc(Cl)c(C(F)(F)F)c3)cc2)ccn1 [Sorafenib, reference compound]	3.4 µM	2.2 µM	–	IC50 (primary rat hepatocytes): 13.4 µM
CC(=O)c1ccc(NC(=O)c2ccc(NC(=O)Cn3c(=O)c(C)nc4ccccc43)cc2)cc1 [Compound 11g, N-(4-Acetylphenyl)-4–(2-(3-methyl-2-oxoquinoxalin-1(2H)-yl)acetamido)benzamide]	6.7 µM	3.8 µM	0.0034 µM	–
COc1cccc(NC(=O)c2ccc(NC(=O)Cn3c(=O)c(C)nc4ccccc43)cc2)c1 [Compound 11e, N-(3-Methoxyphenyl)-4–(2-(3-methyl-2-oxoquinoxalin-1(2H)-yl)acetamido)benzamide]	2.7 µM	2.1 µM	0.0026 µM	increase in the level of caspase-3 (caspase-3): 2.34 fold; IC50 (primary rat hepatocytes): 15 µM; BAX level increase (BAX): 3.14 fold; BAX/Bcl-2 ratio (BAX): 9.17; Bcl-2 level decrease (Bcl-2): 3.13 fold; induced apoptosis (early + late) (HepG2 cells [3]; control 9.71%): 49.14%; Apoptosis Early (Right Bottom) (HepG2 cells [3]; mean ± SD of three experiments): 48.87%; Apoptosis Late (Right Top) (HepG2 cells [3]; mean ± SD of three experiments): 0.27%; Necrosis (Left Top) (HepG2 cells [3]; mean ± SD of three experiments): 0.20 ± 0.03; Apoptosis Early (Right Bottom) (HepG2 cells [3]; [5]): 48.87 ± 3.69%; Apoptosis Late (Right Top) (HepG2 cells [3]; [5]): 0.27 ± 0.04%; viability at 2.1 µM (HepG2 cells [3]; Homo sapiens, mean ± SD of three experiments, read-out: Viable (Left Bottom)): 50.6 ± 3.66%; increase in the level of caspase-9 (caspase-9): 2.34 fold; phase at which HepG2 cell growth is arrested (HepG2 cells [4]): G2/M phase; percentage of cells at the G2/M phase (HepG2 cells [4]; control 18.24%): 46.62%; percentage of cells at the S phase (HepG2 cells [4]; control 25.48): 31.80%; percentage of cells at G1 phase (HepG2 cells [4]; control 55.03%): 20.34%
Cc1nc2ccccc2nc1SCC(=O)Nc1ccc(C(=O)NC2CCCC2)cc1 [Compound 12c, N-Cyclopentyl-4–(2-((3-methylquinoxalin-2-yl)thio)acetamido)benzamide]	31.3 µM	18.7 µM	0.0198 µM	–
CC(=O)c1ccc(NC(=O)c2ccc(NC(=O)CSc3nc4ccccc4nc3C)cc2)cc1 [Compound 12g, N-(4-Acetylphenyl)-4–(2-((3-methylquinoxalin-2-yl)thio)acetamido)benzamide]	8.7 µM	6.1 µM	0.0054 µM	–
CCC(C)NC(=O)c1ccc(NC(=O)Cn2c(=O)c(C)nc3ccccc32)cc1 (stereo not drawn) [Compound 11b, N-(sec-Butyl)-4–(2-(3-methyl-2-oxoquinoxalin-1(2H)-yl)acetamido)benzamide]	21.2 µM	12.8 µM	0.0053 µM	–
CNC(=O)c1ccc(NC(=O)Cn2c(=O)c(C)nc3ccccc32)cc1 [Compound 11a, N-Methyl-4–(2-(3-methyl-2-oxoquinoxalin-1(2H)-yl)acetamido)benzamide]	23.9 µM	16.5 µM	0.0112 µM	–
Cc1ccc(NC(=O)c2ccc(NC(=O)CSc3nc4ccccc4nc3C)cc2)cc1 [Compound 12k, 4–(2-((3-Methylquinoxalin-2-yl)thio)acetamido)-N-(p-tolyl)benzamide]	9.8 µM	6.7 µM	0.0029 µM	–
COc1ccccc1NC(=O)c1ccc(NC(=O)CSc2nc3ccccc3nc2C)cc1 [Compound 12d, N-(2-Methoxyphenyl)-4–(2-((3-methylquinoxalin-2-yl)thio)acetamido) benzamide]	23.5 µM	17.6 µM	0.0134 µM	–
Cc1nc2ccccc2n(CC(=O)Nc2ccc(C(=O)Nc3ccc(F)cc3)cc2)c1=O [Compound 11h, N-(4-Fluorophenyl)-4–(2-(3-methyl-2-oxoquinoxalin-1(2H)-yl)acetamido)benzamide]	25.8 µM	22.7 µM	0.0116 µM	Cytotoxic activity against the two cell lines (in words) [1]: weak cytotoxic activity
COc1cccc(NC(=O)c2ccc(NC(=O)CSc3nc4ccccc4nc3C)cc2)c1 [Compound 12e, N-(3-Methoxyphenyl)-4–(2-((3-methylquinoxalin-2-yl)thio)acetamido) benzamide]	5.3 µM	4.8 µM	0.0038 µM	IC50 (primary rat hepatocytes): 16.7 µM
Cc1cccc(NC(=O)c2ccc(NC(=O)CSc3nc4ccccc4nc3C)cc2)c1 [Compound 12j, 4–(2-((3-Methylquinoxalin-2-yl)thio)acetamido)-N-(m-tolyl)benzamide]	61.2 µM	40.7 µM	0.0378 µM	–
COc1ccccc1NC(=O)c1ccc(NC(=O)Cn2c(=O)c(C)nc3ccccc32)cc1 [Compound 11d, N-(2-Methoxyphenyl)-4–(2-(3-methyl-2-oxoquinoxalin-1(2H)-yl)acetamido)benzamide]	52.3 µM	34.1 µM	0.0374 µM	Cytotoxic activity against the two cell lines (in words) [1]: weak cytotoxic activity
COc1ccc(NC(=O)c2ccc(NC(=O)CSc3nc4ccccc4nc3C)cc2)cc1 [Compound 12f, N-(4-Methoxyphenyl)-4–(2-((3-methylquinoxalin-2-yl)thio)acetamido) benzamide]	10.8 µM	7.5 µM	0.0038 µM	–
Cc1nc2ccccc2n(CC(=O)Nc2ccc(C(=O)Nc3ccccn3)cc2)c1=O [Compound 11i, 4–(2-(3-Methyl-2-oxoquinoxalin-1(2H)-yl)acetamido)-N-(pyridin-2-yl)benzamide]	69.7 µM	51.8 µM	0.0527 µM	Cytotoxic activity against the two cell lines (in words) [1]: weak cytotoxic activity
Cc1nc2ccccc2nc1SCC(=O)Nc1ccc(C(=O)Nc2ccccn2)cc1 [Compound 12i, 4–(2-((3-Methylquinoxalin-2-yl)thio)acetamido)-N-(pyridin-2-yl)benzamide]	58.6 µM	44.7 µM	0.0241 µM	–
Cc1nc2ccccc2nc1SCC(=O)Nc1ccc(C(=O)Nc2ccc(F)cc2)cc1 [Compound 12h, N-(4-Fluorophenyl)-4–(2-((3-methylquinoxalin-2-yl)thio)acetamido)benzamide]	67.8 µM	35.8 µM	0.0514 µM	–
Cc1nc2ccccc2n(CC(=O)Nc2ccc(C(=O)NC3CCCC3)cc2)c1=O [Compound 11c, N-Cyclopentyl-4–(2-(3-methyl-2-oxoquinoxalin-1(2H)-yl)acetamido)benzamide]	28.1 µM	18.7 µM	0.0127 µM	–
COc1ccc(NC(=O)c2ccc(NC(=O)Cn3c(=O)c(C)nc4ccccc43)cc2)cc1 [Compound 11f, N-(4-Methoxyphenyl)-4–(2-(3-methyl-2-oxoquinoxalin-1(2H)-yl)acetamido)benzamide]	12.4 µM	9.6 µM	0.0048 µM	–
Cc1nc2ccccc2n(CC(=O)Nc2ccc(C(=O)Nc3nccs3)cc2)c1=O [Compound 11j, 4–(2-(3-Methyl-2-oxoquinoxalin-1(2H)-yl)acetamido)-N-(thiazol-2-yl)benzamide]	32.8 µM	27.8 µM	0.0134 µM	Cytotoxic activity against the two cell lines (in words) [1]: weak cytotoxic activity
CNC(=O)c1ccc(NC(=O)CSc2nc3ccccc3nc2C)cc1 [Compound 12a, N-Methyl-4–(2-((3-methylquinoxalin-2-yl)thio)acetamido)benzamide]	69.2 µM	23.7 µM	0.0327 µM	Cytotoxic activity against the two cell lines (in words) [1]: weak cytotoxic activity
